Test results: the SangsterLogP compilation

Experiment: method code SF, from Hansch, C. & Leo, A. (1987). Log P database [Dataset]. Pomona College Medicinal Chemistry Project.

| Structure (SMILES) | logP | further results |
| --- | --- | --- |
| N#C/C(=C\c1ccccc1)C(N)=O | 1.5 | – |
| NC(=S)N/N=C/c1ccc(O)cn1 | – | logD (pH 7.4): 0.69 |
| O=C(Nc1ccccc1)Oc1ccccc1 | 3.3 | – |
| CN(C)/N=N/c1ccccc1CO | – | logD (pH 12.0): 1.73 |
| c1cc2[nH]cnc2cn1 | 0.18 | – |
| c1ccc2oncc2c1 | 1.63 | – |
| Nc1ccc2cc3ccccc3nc2c1 | 2.19 | – |
| O=C(Nc1ccccc1)C(F)(F)F | 2.21 | – |
| O=C(NCC(O)CO)Nc1ccccc1 (stereo not given) | 0.28 | – |
| CC(=O)Nc1cccc(OC(C)=O)c1 | – | logD (pH 7.0): 1.03 |
| O=C1C=CC(=O)c2c(O)cccc21 | 1.92 | – |
| O=S1(=O)NC(C2CC=CC2)=Nc2ccccc21 | 1.53 | – |
| CCCCC(=O)Nc1ccccc1 | 2.61 | – |
| CN(C)C(=O)Nc1ccc(OCc2ccc(Cl)cc2Cl)cc1 | 4.1 | – |
| Cc1ccc(OC(=O)CNC(=O)c2ccccc2)cc1 | 2.83 | – |
| C=CC=O | -0.01 | – |
| CN(C)C(=O)Oc1ccccc1Br | 2.17 | – |
| CCC(C)NC(=O)/C(Cl)=C\c1ccccc1 (stereo not given) | 3.52 | – |
| COc1ccccc1C(=O)N(C)C | 0.71 | – |
| CNc1ccccc1[N+](=O)[O-] | 2.18 | – |
| CN(C)C(=S)NCc1ccccc1 | 1.59 | – |
| CC(C)C1=Nc2cc(Cl)ccc2S(=O)(=O)N1 | 2 | – |
| CCc1ccc2c(c1)C(=O)c1ccc(NC(C)=O)cc1S2(=O)=O | 3.44 | – |
| CCCCN(C)C | 1.7 | – |
| CC1=NCCN1CCO | 0.04 | – |

| Structure (SMILES) | logP | further results |
| --- | --- | --- |
| CN(C)CCc1cccs1 | 1.99 | – |
| COC(=O)c1cc(Oc2ccc(Cl)cc2Cl)ccc1[N+](=O)[O-] | 4.48 | – |
| O=C(C=Cc1ccco1)c1ccco1 | 2.34 | – |
| CCCOc1cn[nH]c1 | 1.42 | – |
| CCOC(=O)C(=Cc1cccc(Cl)c1)C(C)=O | 2.97 | – |
| CSC(=O)Nc1ccccc1 | 2.4 | – |
| CC1=Nc2cc([N+](=O)[O-])c(Cl)cc2S(=O)(=O)N1 | 1.42 | – |
| CCC(C)NC(=O)C(=Cc1ccccc1)Cc1ccccc1 (stereo not given) | 3.99 | – |
| O=Nc1ccc(O)cc1 | 1.29 | – |
| Cn1ccc(=O)[nH]c1=O | -1.2 | – |
| Cc1cccc(C=C(C(N)=O)C(N)=O)c1 | 0.4 | – |
| CCCCNC(=O)n1c(NC(=O)OC)nc2ccccc21 | 2.42 | – |
| COc1cc(C=O)ccc1OCCOC(=O)c1ccccc1Cl | 3.21 | – |
| CC(C)Cl | 1.9 | – |
| COc1cc(S(C)=O)ccc1-c1cn2ccncc2n1 (stereo not given) | 1.11 | – |
| Cc1cc(N(C)S(=O)(=O)c2ccc(N)cc2)no1 | – | logD (pH 6.0): 1.75 |
| CCC(C)c1ccccc1OC(=O)N(C)C (stereo not given) | 3.31 | – |
| CCOC(=O)C(=Cc1ccc([N+](=O)[O-])cc1)C(=O)OCC | 3.03 | – |
| COc1ccc(C=C(C(C)=O)C(C)=O)cc1 | 1.73 | – |
| CCOP(=S)(OCC)Oc1ccc(SC)cc1C | 4.16 | – |
| CC(=O)OCC(F)(F)F | 1.18 | – |
| O=C(O)CS | 0.09 | – |
| CCC1(c2ccccc2)C(=O)NCNC1=O | 0.91 | – |
| NC(N)=Nc1ccccc1 | 0.53 | – |
| O=C1CC(=O)c2ccccc21 | 0.61 | – |

| Structure (SMILES) | logP | further results |
| --- | --- | --- |
| O=C1C(N2CCN(CCO)CC2)=C(N2CC2)C(=O)C(N2CCN(CCO)CC2)=C1N1CC1 | -0.73 | – |
| COC(=O)c1ccccc1C | 2.75 | – |
| COC1(NC(=O)CSC(F)F)C(=O)N2C(C(=O)OCC(=O)C(C)(C)C)=C(CSC3(C)N=NN=N3)CSC21 (stereo not given) | – | logD (pH 6.8): 2.31 |
| CN(C)c1ccc(S(N)(=O)=O)cc1 | – | logD (pH 7.0): 0.76 |
| CCN(CC)c1c(C)n(-c2ccccc2)c(=O)n(CC)c1=O | – | logD (pH 7.4): 2.78 |
| O=[N+]([O-])CCO | -0.42 | – |
| CN(C)C(=O)c1ccsc1 | 0.55 | – |
| FS(F)(F)(F)(F)c1ccccc1 | 3.36 | – |
| CC(=O)c1ccc(C#N)cc1 | – | logD (pH 7.0): 1.22 |
| COc1ccccc1C=CC(=O)OCCOc1ccc(C=O)cc1OC | 3.65 | – |
| COc1cccc(C=C(C(N)=O)C(N)=O)c1 | 0.01 | – |
| CC(=O)Oc1ccccc1F | 1.76 | – |
| CCOCC1CNc2nc(N)[nH]c(=O)c2N1 (stereo not given) | -0.68 | – |
| O=c1[nH]c(=O)n([C@H]2C[C@H](O)[C@@H](CO)O2)cc1F | -1.16 | – |
| CN(C)C=CCCc1cccnc1 | – | logD (pH 11.0): 1.68 |
| NC(=O)/C=C/c1ccccc1 | 1.42 | – |
| Oc1ccccc1-c1ccccc1 | 3.09 | – |
| CCNC(N)=O | -0.74 | – |
| O=C(Cc1ccccc1)c1ccccc1 | 3.18 | – |
| Nc1cccc(Cl)c1 | 1.9 | – |
| CC1OC(C)OC(C)O1 (stereo not given) | – | logD (pH 7.5): 0.67 |
| N#CN=[N+]([O-])c1ccc(F)cc1 | 1.8 | – |
| CSc1ncnc2c1ncn2[C@@H]1O[C@H](CO)[C@@H](O)[C@@H]1O | 0.09 | – |
| CCC(C)(C)C | 3.82 | – |
| CN(C)/N=N/c1ccc(C#N)cc1 | 2.35 | – |

| Structure (SMILES) | logP | further results |
| --- | --- | --- |
| COc1ccc(C(N)=O)cc1 | 0.86 | – |
| COc1cc2c(c3c1c(=O)c1ccccc1n3C)C=CC(C)(C)O2 | 3.67 | – |
| CCCOc1cccc(C=C(C(C)=O)C(=O)OCC)c1 | 3.34 | – |
| NNc1ncnc2c([C@@H]3O[C@H](CO)[C@@H](O)[C@H]3O)n[nH]c12 | -1.42 | – |
| c1ccc2c(c1)CCC2 | 3.33 | – |
| CC(C)COCC1CNc2nc(N)[nH]c(=O)c2N1 (stereo not given) | – | logD (pH 7.4): 0.45 |
| CCOP(=O)(OCC)SCSCC | 2.07 | – |
| CO[C@H]1O[C@H](CNC(=O)N(C)N=O)[C@@H](O)[C@H](O)[C@H]1O | – | logD (pH 7.4): -1.57 |
| NC(=O)C(=Cc1cccc(F)c1)C(N)=O | 0.1 | – |
| O=C(Nc1ccccc1)Nc1ccc(Cl)c(Cl)c1 | 4.7 | – |
| OCC(O)COc1ccccc1 (stereo not given) | 0.7 | – |
| C1=CCOC1 | 0.46 | – |
| CCOC(=O)C(=O)c1cccs1 | 1.77 | – |
| c1ccc(CNc2ccccc2)cc1 | 3.13 | – |
| COC(=O)Cc1cccs1 | 1.51 | – |
| CC1(C)Cc2cccc(O)c2O1 | 2.08 | – |
| O=C(OCCOCCO)c1ccccc1 | 1.16 | – |
| CN(C(=O)CCS(C)=O)c1ccc(S(=O)(=O)N(C)C)cc1 (stereo not given) | -0.67 | – |
| O=c1[nH]c(=O)n([C@H]2C[C@H](O)[C@@H](CO)O2)cc1C(F)(F)F | -0.46 | – |
| CC(=O)Nc1cc(OCC(=O)O)ccc1Cl | 0.75 | – |
| CC(C)c1cccc(C(C)C)c1N | 3.18 | – |
| CC1(C)N=C(N)N=C(N)N1c1cccc(C#N)c1 | – | logD (pH 13.0): -0.24 |
| c1ccc2c(c1)CNc1ccccc1C2 | 2.9 | – |
| CC1=Nc2cc(Br)ccc2S(=O)(=O)N1 | 1.37 | – |
| O=C(CNC(=O)c1ccccc1)Oc1cccc(F)c1 | 2.58 | – |

| Structure (SMILES) | logP | further results |
| --- | --- | --- |
| COc1cc(C(=O)C=CN2CC=CC2)cc(OC)c1OC | 1.77 | – |
| CCC1OC(=O)C(C)C(OC2CC(C)(O)C(C)O2)C(C)C(OC2OC(C)C(O)C(N(C)C)C2O)C(C)(O)CC(C)C(=O)C(C)C(O)C1(C)O (stereo not given) | 1.44 | – |
| c1ccc(CSc2cnn[nH]2)cc1 | 2.65 | – |
| CCOC(=O)C(=Cc1ccccc1Cl)C(C)=O | 2.84 | – |
| C[C@]12CCC(=O)C=C1CC[C@@H]1[C@@H]2[C@@H](O)C[C@@]2(C)[C@H]1CC[C@]2(O)C(=O)CO | 1.61 | – |
| O=c1cc(-c2ccc(O)cc2)oc2ccccc12 | 3.2 | – |
| Cc1c([N+](=O)[O-])cc(C(N)=O)cc1[N+](=O)[O-] | 0.68 | – |
| CC1=NS(=O)(=O)c2ccc(C(F)(F)F)cc2N1 | 1.59 | – |
| CC(=O)C(=Cc1ccc(Cl)cc1)C(C)=O | 2.32 | – |
| COc1ccc(OC(C)=O)cc1 | 1.54 | – |
| CCC(=O)OCC(=O)[C@@]1(OC(=O)CC)[C@@H](C)C[C@H]2[C@@H]3CCC4=CC(=O)C=C[C@]4(C)[C@@]3(F)[C@@H](O)C[C@@]21C | 4.07 | – |
| O=[N+]([O-])c1ccc2[nH]c(CCc3nc4cc([N+](=O)[O-])ccc4[nH]3)nc2c1 | 1.29 | – |
| COc1ccc(C=C(C(C)=O)C(C)=O)c(OC)c1 | 1.88 | – |
| O=[N+]([O-])c1ccc2cccnc2c1 | 1.82 | – |
| O=C(CO)OCc1ccccc1 | 1.12 | – |
| CCOC(=O)C(=Cc1ccccc1C)C(=O)OCC | 3.22 | – |
| COc1ccc2cnccc2c1 | 2.22 | – |
| O=NN1CCCCC1=O | -1.05 | – |
| O=S1(=O)NC(Cc2ccccc2)=Nc2ccccc21 | 1.89 | – |
| CC(=O)O[C@@H]1[C@@H](OC(C)=O)[C@H](OC(C)=O)CO[C@H]1NC(=O)N(CCCl)N=O | 1.05 | – |
| CCN(CC)CCNc1ccc(C)c(Cl)c1 | 4.14 | – |
| OCC(F)(F)C(F)(F)C(F)(F)F | 1.81 | – |
| O=C(Nc1ccc(Cl)c(Cl)c1)C1CCCC1 | 4.47 | – |
| OC(c1nc2cc(Cl)ccc2[nH]1)C(O)c1nc2cc(Cl)ccc2[nH]1 (stereo not given) | 1.21 | – |
| O=C(CO)NCc1ccccc1 | 0.55 | – |

| Structure (SMILES) | logP | further results |
| --- | --- | --- |
| CCOP(=S)(OCC)Oc1ccc(SC)cc1Cl | 4.4 | – |
| CSc1ccccc1/N=N/N(C)C | – | logD (pH 7.4): 3.13 |
| COC1C=COC2(C)Oc3c(C)c(O)c4c(O)c(c(/C=N\N5CCCCCCCCCC5)c(O)c4c3C2=O)NC(=O)/C(C)=C\C=C/C(C)C(O)C(C)C(O)C(C)C(OC(C)=O)C1C (stereo not given) | 4.05 | – |
| CC1=NCCN1 | 0.52 | – |
| O=C1OC(c2ccccc2)c2ccccc21 (stereo not given) | 2.64 | – |
| CN(C)C(=O)Cc1cccs1 | 0.65 | – |
| N#CCc1cccs1 | 1.26 | – |
| CN(C)C(=O)Nc1ccc(C(C)(C)C)cc1 | 3.1 | – |
| CCCCOC(=O)c1ccc(C(=O)OCCCC)cc1 | 5.53 | – |
| CCOC(=O)C(=Cc1ccc(OC)cc1)C(C)=O | 2.46 | – |
| CCC1(CC2COc3ccccc3O2)C(=O)NC(=O)NC1=O (stereo not given) | – | logD (pH 2.0): 1.85 |
| O=[N+]([O-])c1ccc2oncc2c1 | – | logD (pH 5.0): 1.46 |
| CCc1ccsc1 | 2.82 | – |
| COP(N)(=O)Oc1cc(Cl)c(Cl)cc1Cl (stereo not given) | 2.53 | – |
| Cl/C=C/Cl | 2.09 | – |
| CC(=O)OCCC(=O)N(C)c1ccc(S(=O)(=O)N(C)C)cc1 | 0.26 | – |
| FC(F)Oc1ccccc1 | 2.41 | – |
| NC(=O)c1ccc(C(F)(F)F)cc1 | 1.71 | – |
| Cc1ccc(/C=C/[N+](=O)[O-])cc1 | 2.66 | – |
| CCC(=O)Nc1ccccc1 | 1.61 | – |
| CC(=O)Nc1ccc(S(=O)(=O)F)cc1 | 2.17 | – |
| Cn1nnc2ccccc2c1=O | 0.84 | – |
| CCC(C)NC(=O)C(=Cc1ccccc1)OC (stereo not given) | 2.86 | – |
| CC(=O)OCC(=O)[C@@]12OC(C)(C)O[C@@H]1C[C@H]1[C@@H]3C[C@H](F)C4=CC(=O)C=C[C@]4(C)[C@@]3(F)[C@@H](O)C[C@@]12C | 3.19 | – |
| CC1(C)N=C(N)N=C(N)N1c1ccc(F)cc1 | – | logD (pH 13.0): 0.37 |
